Literature values as cited in US20110224120A1, “WASHING, CLEANING, POST-TREATING OR AUXILIARY WASHING AGENT CONTAINING SILVER” (Henkel AG & Co. KGaA, priority 2008, published 2011).

Settings: Kanicky et al., Langmuir 2000, 16, 172-177

CCCCCCCCCCCCCC(=O)O [myristic acid]
pKa value: 8.15
